Consider 24 compounds from PubChem BioAssay AID330 (DTP/NCI, 2004).

This test deals with P388 leukemia ip, CD2F1 mice, survival T/C. Kind of test: NCI In Vivo Anticancer Drug Screen. Data for tumor model P388 Leukemia (intraperitoneal) in CD2F1 (CDF1) mice. Conditions: endpoint: median survival time, higher = longer survival. The gist of the method: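 Mice carrying the transplanted tumor received test compound or vehicle. Survival was recorded in each group, and the value is the treated-group measurement divided by that of the vehicle-treated control group.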

Where [1] appears, read: dose: 60.0 mg/kg/injection, schedule: Q01DX005 (ip), vehicle: Klucel (hydroxypropylcellulose) (HPC).
Where [2] appears, read: dose: 120.0 mg/kg/injection, schedule: Q01DX005 (ip), vehicle: Klucel (hydroxypropylcellulose) (HPC).
[3] abbreviates: dose: 240.0 mg/kg/injection, schedule: Q01DX005 (ip), vehicle: Klucel (hydroxypropylcellulose) (HPC).
[4] abbreviates: dose: 50.0 mg/kg/injection, schedule: Q01DX005 (ip), vehicle: saline with Tween-80.
Setting [5] is: dose: 100.0 mg/kg/injection, schedule: Q01DX005 (ip), vehicle: saline with Tween-80.
Setting [6] is: dose: 200.0 mg/kg/injection, schedule: Q01DX005 (ip), vehicle: saline with Tween-80.
Where [7] appears, read: dose: 25.0 mg/kg/injection, schedule: Q01DX009 (ip), vehicle: saline.
Where [8] appears, read: dose: 50.0 mg/kg/injection, schedule: Q01DX009 (ip), vehicle: saline.
[9] abbreviates: dose: 100.0 mg/kg/injection, schedule: Q01DX009 (ip), vehicle: saline.
[10] abbreviates: dose: 200.0 mg/kg/injection, schedule: Q01DX009 (ip), vehicle: saline.
The mark [11] stands for this setting: dose: 50.0 mg/kg/injection, schedule: Q01DX005 (ip), vehicle: Klucel (hydroxypropylcellulose) (HPC).
[12] abbreviates: dose: 100.0 mg/kg/injection, schedule: Q01DX005 (ip), vehicle: Klucel (hydroxypropylcellulose) (HPC).
The mark [13] stands for this setting: dose: 200.0 mg/kg/injection, schedule: Q01DX005 (ip), vehicle: Klucel (hydroxypropylcellulose) (HPC).
[14] abbreviates: dose: 60.0 mg/kg/injection, schedule: Q01DX005 (ip), vehicle: saline.
Where [15] appears, read: dose: 120.0 mg/kg/injection, schedule: Q01DX005 (ip), vehicle: saline.
The mark [16] stands for this setting: dose: 240.0 mg/kg/injection, schedule: Q01DX005 (ip), vehicle: saline.

Several values for one entry are separate records, joined by “and”; a condition that tells them apart may be missing. Equal values may be shown once. Inconclusive results and toxic doses are left out.

As for `NC(=O)c1cnn(CCOS(=O)(=O)O)c1N`, the T/C (dose: 12.5 mg/kg/injection, schedule: Q01DX009 (ip), vehicle: water) was 103 % of control; the T/C (dose: 25.0 mg/kg/injection, schedule: Q01DX009 (ip), vehicle: water) was 101 % of control; the T/C (dose: 50.0 mg/kg/injection, schedule: Q01DX009 (ip), vehicle: water) is 108 % of control; the T/C (dose: 100.0 mg/kg/injection, schedule: Q01DX009 (ip), vehicle: water) was 107 % of control; the T/C (dose: 200.0 mg/kg/injection, schedule: Q01DX009 (ip), vehicle: water) was 103 % of control.
In the case of `O=C1C(=O)N(c2ccccc2)[C@@]2(c3ccccc3)C(=Nc3ccccc3)OC(c3ccccc3)=C12`, the T/C reads like this: under setting [1], 90 % of control; under setting [2], 90 % of control; under setting [3], 88 % of control.
As for `C/C(N=NC(=S)N1CCC(C)CC1)=C1\C=CC=CN1O`, the T/C was 103 % of control under setting [4], 103 % of control under setting [5] and 108 % of control under setting [6].
`c1cc[c]([Sn][c]2ccccc2)cc1`: the T/C (dose: 2.5 mg/kg/injection, schedule: Q01DX009 (ip), vehicle: saline) was 151 % of control.
`CC(=O)Nc1cc2cc(NC(=O)C(Cl)(Cl)Cl)ccc2oc1=O`: the T/C is, setting by setting: under setting [1], 98 % of control; under setting [2], 100 % of control; under setting [3], 100 % of control.
In the case of `O=C(O)CSC(CC(=O)O)C(=O)O` (stereo not given), the T/C reads like this: under setting [7], 97 % of control; under setting [8], 96 % of control; under setting [9], 100 % of control; under setting [10], 88 % of control.
Take `N#CSCCSC#N`: the T/C (dose: 6.25 mg/kg/injection, schedule: Q04DX002 (ip), vehicle: Klucel (hydroxypropylcellulose) (HPC)) is 100 % of control and the T/C (dose: 12.5 mg/kg/injection, schedule: Q04DX002 (ip), vehicle: Klucel (hydroxypropylcellulose) (HPC)) was 97 % of control.
As for `O=C(Nc1ccc(Cl)cc1)Nc1nnc2nc(C(C(=O)c3ccc(O)cc3O)c3nc4nnc(NC(=O)Nc5ccc(Cl)cc5)n4[nH]c3=O)c(=O)[nH]n12`, the T/C reads like this: (dose: 60.0 mg/kg/injection, schedule: Q01DX005 (ip), vehicle: saline with Tween-80) 103 % of control; (dose: 120.0 mg/kg/injection, schedule: Q01DX005 (ip), vehicle: saline with Tween-80) 95 % of control.
Consider `CC1=CC(=O)C(O)C2(C)C1CC1OC(=O)C(OC(=O)CC(C)(C)O)C3C(C)C(O)C4(O)OCC13C42` (stereo not given), for which the T/C is 115 % of control (dose: 0.5 mg/kg/injection, schedule: Q01DX009 (ip), vehicle: saline + alcohol); 118 % of control (dose: 1.0 mg/kg/injection, schedule: Q01DX009 (ip), vehicle: saline + alcohol); 119 % of control (dose: 2.0 mg/kg/injection, schedule: Q01DX009 (ip), vehicle: saline + alcohol); 118 % of control (dose: 8.0 mg/kg/injection, schedule: Q01DX009 (ip), vehicle: saline + alcohol).
With `CC1=C(CO)C(=O)OC(C(C)C2CCC3C4CC5OC56C(O)C(N5CC5(C)C)CC(=O)C6(C)C4CCC23C)C1` (stereo not given), the T/C reads like this: (dose: 8.75 mg/kg/injection, schedule: Q01DX005 (ip), vehicle: Klucel (hydroxypropylcellulose) (HPC)) 108 % of control; (dose: 17.5 mg/kg/injection, schedule: Q01DX005 (ip), vehicle: Klucel (hydroxypropylcellulose) (HPC)) 99 % of control; (dose: 35.0 mg/kg/injection, schedule: Q01DX005 (ip), vehicle: Klucel (hydroxypropylcellulose) (HPC)) 99 % of control; (dose: 70.0 mg/kg/injection, schedule: Q01DX005 (ip), vehicle: Klucel (hydroxypropylcellulose) (HPC)) 108 % of control; (dose: 140.0 mg/kg/injection, schedule: Q01DX005 (ip), vehicle: Klucel (hydroxypropylcellulose) (HPC)) 105 % of control.
`CCC1COC(COCc2ccccc2)=N1` (stereo not given): the T/C was 98 % of control (dose: 100.0 mg/kg/injection, schedule: Q01DX002 (ip), vehicle: saline); 95 % of control (dose: 200.0 mg/kg/injection, schedule: Q01DX002 (ip), vehicle: saline); 95 % of control (dose: 400.0 mg/kg/injection, schedule: Q01DX002 (ip), vehicle: saline).
Regarding `CCCCCCCCCCCC[N+]1([O-])CCCCCC1`, the T/C was 100 % of control (dose: 12.5 mg/kg/injection, schedule: Q01DX009 (ip), vehicle: saline); 100 % of control under setting [7]; 107 % of control and 94 % of control under setting [8].
For the compound `CC(C)(C)OC(=O)NC(CC(Cc1ccccc1)C(=O)O)C(=O)NC(CC(Cc1ccccc1)C(=O)O)C(=O)NC(CC(Cc1ccccc1)C(=O)O)C(=O)NCC(=O)Oc1ccc([N+](=O)[O-])cc1` (stereo not given), the T/C runs as follows: (dose: 12.5 mg/kg/injection, schedule: Q01DX005 (ip), vehicle: saline with Tween-80) 99 % of control; (dose: 25.0 mg/kg/injection, schedule: Q01DX005 (ip), vehicle: saline with Tween-80) 91 % of control; under setting [4], 89 % of control.
Regarding `O=C(Cc1cc(-c2ccccc2)nc(=O)[nH]1)c1ccccc1`, the T/C (dose: 100.0 mg/kg/injection, schedule: Q04DX002 (ip), vehicle: saline with Tween-80) was 97 % of control and the T/C (dose: 200.0 mg/kg/injection, schedule: Q04DX002 (ip), vehicle: saline with Tween-80) is 93 % of control.
With `C/C(=N\NC(=S)NNC(=S)N(C)c1ccccc1)c1ccccc1`, the T/C is 98 % of control (dose: 25.0 mg/kg/injection, schedule: Q01DX005 (ip), vehicle: Klucel (hydroxypropylcellulose) (HPC)); 93 % of control under setting [11]; 94 % of control under setting [12]; 91 % of control under setting [13].
Regarding `COc1cc2c(cc1OC)C13CCN4C(=O)C(=O)C(CC41)C1C(OCC(=O)O)CC(=O)N2C13` (stereo not given), the T/C reads like this: under setting [14], 101 % of control; under setting [15], 101 % of control; under setting [16], 100 % of control.
`C(=NCCN=Cc1ccc2c(c1)OCO2)c1ccc2c(c1)OCO2`: the T/C is, setting by setting: (dose: 25.0 mg/kg/injection, schedule: Q01DX009 (ip), vehicle: saline with Tween-80) 93 % of control; (dose: 50.0 mg/kg/injection, schedule: Q01DX009 (ip), vehicle: saline with Tween-80) 92 % of control; (dose: 100.0 mg/kg/injection, schedule: Q01DX009 (ip), vehicle: saline with Tween-80) 99 % of control; (dose: 200.0 mg/kg/injection, schedule: Q01DX009 (ip), vehicle: saline with Tween-80) 100 % of control.
With `COc1cccc(O)c1O`, the T/C by setting is: under setting [9], 101 % of control; under setting [10], 100 % of control; (dose: 400.0 mg/kg/injection, schedule: Q01DX009 (ip), vehicle: saline) 111 % of control.
As for `O=C1NC2NC(=O)NC2N1` (stereo not given), the T/C is, setting by setting: (dose: 100.0 mg/kg/injection, schedule: Q04DX003 (ip), vehicle: Klucel (hydroxypropylcellulose) (HPC)) 94 % of control; (dose: 200.0 mg/kg/injection, schedule: Q04DX003 (ip), vehicle: Klucel (hydroxypropylcellulose) (HPC)) 107 % of control; (dose: 400.0 mg/kg/injection, schedule: Q04DX003 (ip), vehicle: Klucel (hydroxypropylcellulose) (HPC)) 100 % of control.
On to `CC(=O)OC1CCC2(C)C(C1)CC(OC(C)=O)C1C2CC(OC(C)=O)C2(C)C(/C(C)=C\C=C(c3ccccc3)c3ccccc3)CCC12` (stereo not given), for which the T/C reads like this: (dose: 50.0 mg/kg/injection, schedule: Q01DX009 (ip), vehicle: Klucel (hydroxypropylcellulose) (HPC)) 103 % of control; (dose: 100.0 mg/kg/injection, schedule: Q01DX009 (ip), vehicle: Klucel (hydroxypropylcellulose) (HPC)) 112 % of control; (dose: 200.0 mg/kg/injection, schedule: Q01DX009 (ip), vehicle: Klucel (hydroxypropylcellulose) (HPC)) 121 % of control.
Regarding `O=c1cc2c(n[nH]1)-c1ccccc1C2`, the T/C is, setting by setting: under setting [4], 100 % of control; under setting [5], 109 % of control; under setting [6], 96 % of control.
As to `CC(=O)Oc1ccc(C2c3c(n(C(C)=O)c4ccccc34)C(=O)NN2C(C)=O)cc1` (stereo not given), the T/C was 100 % of control under setting [11], 109 % of control under setting [12] and 112 % of control under setting [13].
On the same counts, the results for `COC(=O)C1(C(=O)OC)ON1C(C)(C)C` (stereo not given) are 100 % of control, 96 % of control and 97 % of control.
For the compound `COC1OC(COC(C)=O)C(N(C)C(C)=O)C1OC(C)=O` (stereo not given), the T/C was 103 % of control under setting [14], 96 % of control under setting [15] and 104 % of control under setting [16].
